Converted amounts (≈) assume the structure as drawn. Read-outs that look alike come from different tables or passages of the source.
Assays:
Assay in all cases: antibacterial activity (MIC), standard method of the Japan Society of Chemotherapy
Type in all cases: cell-based
Str. pyogenes, G-36 = tested on: Str. pyogenes, G-36
Experimental: (§1) The antibacterial activity of each compound of the present invention was measured in accordance with the standard method specified by the Japan Society of Chemotherapy, with the results shown in the following Table 2 as MIC values (μg/ml). In this connection, MIC values of levofloxacin (LVFX) and ciprofloxacin (CPEX) are also shown for the sake of comparison with the MIC values of the compounds of the present invention.

Pr. vulgaris, 08601 = tested on: Pr. vulgaris, 08601
Experimental: as §1

S. aureus, 870307 = tested on: S. aureus, 870307
Experimental: as §1

K. pneumoniae TYPE 1 = tested on: K. pneumoniae TYPE 1
Experimental: as §1

PS. aeruginosa, 32121 = tested on: PS. aeruginosa, 32121
Experimental: as §1

S. epidermidis, 56500 = tested on: S. epidermidis, 56500
Experimental: as §1

Ps. aeruginosa, 32104 = tested on: Ps. aeruginosa, 32104
Experimental: as §1

S. flexneri, 2A 5503 = tested on: S. flexneri, 2A 5503
Experimental: as §1

X. maltophilia, IID 1275 = tested on: X. maltophilia, IID 1275
Experimental: as §1

Ser. marcescens, 10100 = tested on: Ser. marcescens, 10100
Experimental: as §1

E. coli, NIHJ = tested on: E. coli, NIHJ
Experimental: as §1

E. faecalis, ATCC 19433 = tested on: E. faecalis, ATCC 19433
Experimental: as §1

Str. pneumoniae, J24 = tested on: Str. pneumoniae, J24
Experimental: as §1

S. aureus, FDA 209P = tested on: S. aureus, FDA 209P
Experimental: as §1

[1] = Streptococcus pyogenes, G36, read-out: MIC
[2] = Proteus vulgaris, read-out: MIC
[3] = Staphylococcus aureus, read-out: MIC
[4] = Klebsiella pneumoniae, TYPE1, read-out: MIC
[5] = Pseudomonas aeruginosa, read-out: MIC
[6] = Staphylococcus epidermidis, read-out: MIC
[7] = Shigella flexneri, 2A5503, read-out: MIC
[8] = Stenotrophomonas maltophilia, IID1275, read-out: MIC
[9] = Serratia marcescens, read-out: MIC
[10] = Escherichia coli, read-out: MIC
[11] = Enterococcus faecalis, ATCC19433, read-out: MIC
[12] = Streptococcus pneumoniae, read-out: MIC
[13] = Staphylococcus aureus, FDA209P, read-out: MIC

## O=C(O)c1cn(C2CC2)c2cc(N3CCNCC3)c(F)cc2c1=O [CPFX, ciprofloxacin, reference compound]
Str. pyogenes, G-36; [1]
  MIC: 1.56 µg/mL (≈ 4.71 µM)
Pr. vulgaris, 08601; [2]
  MIC: ≤ 0.003 µg/mL
S. aureus, 870307; [3]
  MIC: 3.13 µg/mL (≈ 9.45 µM)
K. pneumoniae TYPE 1; [4]
  MIC: 0.025 µg/mL (≈ 0.0754 µM)
PS. aeruginosa, 32121; [5]
  MIC: 0.025 µg/mL (≈ 0.0754 µM)
S. epidermidis, 56500; [6]
  MIC: 0.2 µg/mL (≈ 0.604 µM)
Ps. aeruginosa, 32104; [5]
  MIC: 0.05 µg/mL (≈ 0.151 µM)
S. flexneri, 2A 5503; [7]
  MIC: 0.006 µg/mL (≈ 0.0181 µM)
X. maltophilia, IID 1275; [8]
  MIC: 0.78 µg/mL (≈ 2.35 µM)
Ser. marcescens, 10100; [9]
  MIC: 0.025 µg/mL (≈ 0.0754 µM)
E. coli, NIHJ; [10]
  MIC: ≤ 0.003 µg/mL
E. faecalis, ATCC 19433; [11]
  MIC: 0.78 µg/mL (≈ 2.35 µM)
Str. pneumoniae, J24; [12]
  MIC: 0.1 µg/mL (≈ 0.302 µM)
S. aureus, FDA 209P; [13]
  MIC: 0.1 µg/mL (≈ 0.302 µM)

## C[C@H]1COc2c(N3CCN(C)CC3)c(F)cc3c(=O)c(C(=O)O)cn1c23 [LVFX, levofloxacin, reference compound]
Str. pyogenes, G-36; [1]
  MIC: 0.2 µg/mL (≈ 0.553 µM)
Pr. vulgaris, 08601; [2]
  MIC: 0.13 µg/mL (≈ 0.36 µM)
S. aureus, 870307; [3]
  MIC: > 6.25 µg/mL
K. pneumoniae TYPE 1; [4]
  MIC: 0.1 µg/mL (≈ 0.277 µM)
PS. aeruginosa, 32121; [5]
  MIC: 0.1 µg/mL (≈ 0.277 µM)
S. epidermidis, 56500; [6]
  MIC: 0.39 µg/mL (≈ 1.08 µM)
Ps. aeruginosa, 32104; [5]
  MIC: 0.2 µg/mL (≈ 0.553 µM)
S. flexneri, 2A 5503; [7]
  MIC: 0.025 µg/mL (≈ 0.0692 µM)
X. maltophilia, IID 1275; [8]
  MIC: 0.39 µg/mL (≈ 1.08 µM)
Ser. marcescens, 10100; [9]
  MIC: 0.1 µg/mL (≈ 0.277 µM)
E. coli, NIHJ; [10]
  MIC: 0.013 µg/mL (≈ 0.036 µM)
E. faecalis, ATCC 19433; [11]
  MIC: 0.78 µg/mL (≈ 2.16 µM)
Str. pneumoniae, J24; [12]
  MIC: 0.78 µg/mL (≈ 2.16 µM)
S. aureus, FDA 209P; [13]
  MIC: 0.2 µg/mL (≈ 0.553 µM)

## Nc1c(F)c(N2CCC(C(N)C3CC3)C2)c(F)c2c1c(=O)c(C(=O)O)cn2C1CC1F (stereo not drawn) [compound 5]
Str. pyogenes, G-36
  MIC: ≦0.003 μg/ml
Pr. vulgaris, 08601
  MIC: 0.013 µg/mL (≈ 0.0298 µM)
S. aureus, 870307
  MIC: 0.025 µg/mL (≈ 0.0573 µM)
K. pneumoniae TYPE 1
  MIC: 0.013 µg/mL (≈ 0.0298 µM)
PS. aeruginosa, 32121
  MIC: 0.025 µg/mL (≈ 0.0573 µM)
S. epidermidis, 56500
  MIC: ≦0.003 μg/ml
Ps. aeruginosa, 32104
  MIC: 0.05 µg/mL (≈ 0.115 µM)
S. flexneri, 2A 5503
  MIC: ≦0.003 μg/ml
X. maltophilia, IID 1275
  MIC: 0.05 µg/mL (≈ 0.115 µM)
Ser. marcescens, 10100
  MIC: 0.025 µg/mL (≈ 0.0573 µM)
E. coli, NIHJ
  MIC: ≦0.003 μg/ml
E. faecalis, ATCC 19433
  MIC: 0.013 µg/mL (≈ 0.0298 µM)
Str. pneumoniae, J24
  MIC: ≦0.003 μg/ml
S. aureus, FDA 209P
  MIC: ≦0.003 μg/ml

## COc1c(N2CCC(C(N)C3CC3)C2)c(F)cc2c(=O)c(C(=O)O)cn(C3CC3F)c12 (stereo not drawn) [compound 6]
Str. pyogenes, G-36
  MIC: ≦0.003 μg/ml
Pr. vulgaris, 08601
  MIC: 0.013 µg/mL (≈ 0.03 µM)
S. aureus, 870307
  MIC: 0.1 µg/mL (≈ 0.231 µM)
K. pneumoniae TYPE 1
  MIC: 0.05 µg/mL (≈ 0.115 µM)
PS. aeruginosa, 32121
  MIC: 0.05 µg/mL (≈ 0.115 µM)
S. epidermidis, 56500
  MIC: 0.006 µg/mL (≈ 0.0138 µM)
Ps. aeruginosa, 32104
  MIC: 0.1 µg/mL (≈ 0.231 µM)
S. flexneri, 2A 5503
  MIC: 0.006 µg/mL (≈ 0.0138 µM)
X. maltophilia, IID 1275
  MIC: 0.2 µg/mL (≈ 0.461 µM)
Ser. marcescens, 10100
  MIC: 0.1 µg/mL (≈ 0.231 µM)
E. coli, NIHJ
  MIC: ≦0.003 μg/ml
E. faecalis, ATCC 19433
  MIC: 0.025 µg/mL (≈ 0.0577 µM)
Str. pneumoniae, J24
  MIC: ≦0.003 μg/ml
S. aureus, FDA 209P
  MIC: ≦0.003 μg/ml

## Cc1c(N2CCC(C(N)C3CC3)C2)c(F)c(N)c2c(=O)c(C(=O)O)cn(C3CC3F)c12 (stereo not drawn) [compound 7]
Str. pyogenes, G-36
  MIC: ≦0.003 μg/ml
Pr. vulgaris, 08601
  MIC: 0.013 µg/mL (≈ 0.0301 µM)
S. aureus, 870307
  MIC: 0.025 µg/mL (≈ 0.0578 µM)
K. pneumoniae TYPE 1
  MIC: 0.025 µg/mL (≈ 0.0578 µM)
PS. aeruginosa, 32121
  MIC: 0.025 µg/mL (≈ 0.0578 µM)
S. epidermidis, 56500
  MIC: ≦0.003 μg/ml
Ps. aeruginosa, 32104
  MIC: 0.05 µg/mL (≈ 0.116 µM)
S. flexneri, 2A 5503
  MIC: ≦0.003 μg/ml
X. maltophilia, IID 1275
  MIC: 0.05 µg/mL (≈ 0.116 µM)
Ser. marcescens, 10100
  MIC: 0.05 µg/mL (≈ 0.116 µM)
E. coli, NIHJ
  MIC: ≦0.003 μg/ml
E. faecalis, ATCC 19433
  MIC: 0.013 µg/mL (≈ 0.0301 µM)
Str. pneumoniae, J24
  MIC: ≦0.003 μg/ml
S. aureus, FDA 209P
  MIC: ≦0.003 μg/ml

## COc1c(N2CCC(C(N)C3CC3)C2)ccc2c(=O)c(C(=O)O)cn(C3CC3)c12 (stereo not drawn) [compound 8]
Str. pyogenes, G-36
  MIC: 0.013 µg/mL (≈ 0.0327 µM)
Pr. vulgaris, 08601
  MIC: 0.05 µg/mL (≈ 0.126 µM)
S. aureus, 870307
  MIC: 0.2 µg/mL (≈ 0.503 µM)
K. pneumoniae TYPE 1
  MIC: 0.1 µg/mL (≈ 0.252 µM)
PS. aeruginosa, 32121
  MIC: 0.2 µg/mL (≈ 0.503 µM)
S. epidermidis, 56500
  MIC: 0.025 µg/mL (≈ 0.0629 µM)
Ps. aeruginosa, 32104
  MIC: 0.39 µg/mL (≈ 0.981 µM)
S. flexneri, 2A 5503
  MIC: 0.1 µg/mL (≈ 0.252 µM)
X. maltophilia, IID 1275
  MIC: 0.2 µg/mL (≈ 0.503 µM)
Ser. marcescens, 10100
  MIC: 0.2 µg/mL (≈ 0.503 µM)
E. coli, NIHJ
  MIC: 0.006 µg/mL (≈ 0.0151 µM)
E. faecalis, ATCC 19433
  MIC: 0.05 µg/mL (≈ 0.126 µM)
Str. pneumoniae, J24
  MIC: 0.006 µg/mL (≈ 0.0151 µM)
S. aureus, FDA 209P
  MIC: 0.006 µg/mL (≈ 0.0151 µM)

Reference: US6573260B1, “Cycloalkyl-substituted aminomethylpyrrolidine derivatives” (Daiichi Pharmaceutical Co., Ltd., priority 1998, dated 2003)
